We go through 4 compounds from US20260294838A1, “ACTIVATION ENHANCER AND FOOD AND DRINK FOR ENHANCING ACTIVATION” (Asahi Group Holdings, Ltd., priority 2023, published 2026).

In data set [1] the test system is EEG. The experiment in a line: Reference Example: EEG test in the same manner as in Test Example 4. The class given is in vivo, human (healthy Japanese men and women, 20 to 39 years old). The conditions noted are these: 10-ppm aqueous solution, same manner as Test Example 4 (EEG), 20 subjects. How it is done: Each subject was instructed to wear an electroencephalograph (model number: HARU-2, manufactured by PGV Co., Ltd.), and to wait for 5 minutes at rest, and then asked to answer a questionnaire for one minute. Subsequently, each subject was instructed to ingest 200 mL of the test beverage within 5 minutes, and thereafter, to wait at rest except for answering the questionnaire for one minute immediately after the ingestion, 15 minutes after the ingestion, 30 minutes after the ingestion and 45 minutes after the ingestion. The EEG were measured from before the ingestion of the test beverage until 45 minutes after the ingestion. The same measurement was carried out one more time. The beverage to be ingested was selected at random for each subject, and each subject was instructed to ingest each beverage once.
In the analysis of EEG, the data obtained during the questionnaires and the ingestion that affect the EEG were excluded from the analysis target. The EEG measured during each waiting time at rest before and after the ingestion were analyzed using the MNE library (ver. 1.3.0) in Python language, and the B/a ratio was calculated from the two-minute data. No exclusion of target data was allowed, and all cases were analyzed as the target.
The test was carried out in the same manner as in Test Example 4, using a 10-ppm aqueous solution of each of: geraniol, which is the isomer of nerol; α-terpineol, which is a degradation product of nerol; and linalool, on 20 healthy Japanese men and women with ages ranging from 20 years old to 39 years old, as the subjects. As a result, the effect of enhancing activation was not observed in any of geraniol, α-terpineol and linalool.

The test system of data set [2] is brain blood flow. Particulars: humans exposed to nerol and geraniol (aroma components of lemongrass extract); cited from earlier work.
The subject of data set [3] is rats. The conditions noted are these: cited from earlier work.

With `CC(C)=CCC/C(C)=C/CO` [geraniol], the “effect of enhancing activation” value in data set [1] was “not observed”. For the same compound, the “amount of brain blood flow” value in data set [2] is “increased significantly”.

Consider `C=CC(C)(O)CCC=C(C)C` (centres unmarked) [linalool], for which the “effect of enhancing activation” value in data set [1] is reported as “not observed”.

For the compound `CC(C)=CCC/C(C)=C\CO` [nerol, (Z)-3,7-dimethyl-2,6-octadien-1-ol], the “acceptable daily intake (ADI) per person” value in data set [3] (calculated, assuming an adult with a body weight of 50 kg) was 95.5 mg/person/day. Moreover, the “acceptable daily intake (ADI)” value in data set [3] (calculated) is recorded as 1.91 mg/kg/day. Besides, the “no-observed adverse effect level (NOAEL), lowest value” in data set [3] (repeated dose toxicity study on rats) is given as 191 mg/kg/day. Also, the “amount of brain blood flow” value in data set [2] is listed as “increased significantly”.

As for `CC1=CCC(C(C)(C)O)CC1` (stereo not drawn) [α-terpineol], the “effect of enhancing activation” value in data set [1] was “not observed”.
